The logP is the decadic logarithm of the partition coefficient of the neutral form, usually between octanol and water. A low value points to a more hydrophilic compound.

The record followed here is ChEMBL document CHEMBL1136901, “Crown-capped imidacloprid: a novel design and insecticidal activity” (Bioorg Med Chem Lett, 2009).

For series [1], the system named is Musca domestica. Briefly: Insecticidal activity against Musca domestica Takatsuki assessed as mortality injected into thorax measured after 24 hrs. It is filed as functional.
The subject of series [2] is Musca domestica. In words: Insecticidal activity against Musca domestica Takatsuki in presence of metabolic inhibitor propyl 2-propynyl phenylphosphate. The format is functional.
In series [3] the test system is Musca domestica. Briefly: Insecticidal activity against Musca domestica Takatsuki assessed as mortality at 15 ug applied topically. The format is functional.
Series [4] in a line: Octanol-water partition coefficient, log P of the compound. The format is physicochemical.
For series [5], the system named is Musca domestica. In words: Toxicity against Musca domestica Takatsuki assessed as neurological side effects at 1100 ng. It is filed as functional, organism-based.

Regarding `O=[N+]([O-])/N=C1\N(Cc2ccc(Cl)nc2)CCN1Cc1ccc2c(c1)OCCOCCOCCOCCOCCO2`, the LD50 in series [1] worked out at 17 ng. In addition, the Activity in series [2] was found to be 4.3 ng; in series [3], 38%. The compound also showed a logP in series [4] of 0.28.
Take `O=[N+]([O-])/N=C1\N(Cc2ccc(Cl)nc2)CCN1Cc1ccc2c(c1)OCCOCCOCCOCCO2`: the LD50 in series [1] is reported as 25 ng. Also, the Activity came to 4.8 ng in series [2] and 44% in series [3]. Also, the logP in series [4] came to 0.15.
For the compound `c1ccc2c(c1)OCCOCCOCCOCCOCCO2`, the Activity entry in series [5] is “Not toxic”.
In the case of `c1ccc2c(c1)OCCOCCOCCOCCO2`, the Activity result in series [5] was “Not toxic”.
Turning to `O=[N+]([O-])/N=C1\NCCN1Cc1ccc(Cl)nc1` [IMIDACLOPRID], in series [1], the LD50 is recorded as 84 ng.
